The subject of one experiment is proliferating TG1 GSCs. In words: ATP-Glo dose-response, proliferating TG1 GSCs. In kind it is cell-based, human. To be noted: 24 h, SAR study, ATP-Glo cell survival assay, 24 h, triplicate; for EC50: Homo sapiens, read-out: Proliferating TG1 GSCs EC50. Here is the method: (§1) The EC50 value was determined for each compound by fitting the data points according to the following equation: y=Smax+Smin*(x*1/EC50)^n/1+(x*1/EC50)^n where y represents the expected response, x is the chemical compound concentration, S max and S min are the maximum and minimum responses recorded, respectively and n is the Hill coefficient. Curve fitting was performed using Microsoft Excel Solver component.
(§2) Proliferating or quiescent TG1 cells were seeded in 50 μL of their respective media (30 000 and 40 000 viable cells/well, respectively) into 96-well opaque bottom plates (Greiner, Courtaboeuf, France). Compound treatment was performed by adding 50 μL of compound solutions (in the presence of 2% DMSO in culture medium). […] All compounds were tested in triplicate in each experiment. Independent experiments were performed at least twice for almost all of the compounds.

The test system of a further experiment is quiescent TG1 GSCs. The experiment is described as follows: ATP-Glo dose-response, quiescent TG1 GSCs. In kind it is cell-based, human. The conditions noted are these: for EC50: Homo sapiens, read-out: Quiescent TG1 GSCs EC50; for EC50 / Quiescent TG1 GSCs EC50: 24 h, SAR study, ATP-Glo cell survival assay, triplicate; for fold increase in EC50 (activity decrease) compared to DDPM (compound 2): quiescent TG1 GSCs. Here is the method: as §1, §2

The term EC50 denotes the concentration that produces a half-maximal response.

As to `Oc1ccc(C(c2ccc(O)cc2)c2ccccn2)cc1` [Compound 2, 4,4'-dihydroxydiphenyl(pyridine-2-yl)methane], the EC50 in the experiment with proliferating TG1 GSCs is > 100 µM; with quiescent TG1 GSCs it was 1 ± 0.5 µM.

In the case of `CC(=O)Oc1ccc(C(c2ccc(O)cc2)c2ccccn2)cc1` (centres unmarked) [Compound 3, 4-((4-hydroxyphenyl)(pyridin-2-yl)methyl)phenyl acetate], the concentration for a half-maximal effect (EC50) in the experiment with proliferating TG1 GSCs is > 100 µM; in the experiment with quiescent TG1 GSCs, 1 ± 0.5 µM.

As to `COc1ccc(C(c2ccc(OC)cc2)c2ccccn2)cc1` [Compound 4, 4,4'-dimethoxydiphenyl(pyridin-2-yl)methane], the “Proliferating TG1 GSCs EC50” value in the experiment on proliferating TG1 GSCs is given as “No activity”. The “Quiescent TG1 GSCs EC50” value with quiescent TG1 GSCs is given as “No activity”.

In the case of `COc1ccc(C(c2ccc(O)cc2)c2ccccn2)cc1` (centres unmarked) [Compound 5, 4-hydroxyphenyl-4-methoxyphenyl-(pyridin-2-yl)-methane], in the experiment with proliferating TG1 GSCs, the 50% effective concentration (EC50) was > 100 µM. In the experiment on quiescent TG1 GSCs, the EC50 is 8 ± 6 µM and the “fold increase in EC50 (activity decrease) compared to DDPM (compound 2)” value stood at 8 fold.

`Oc1ccc(Cc2ccccn2)cc1` [Compound 8, 2-(4-Hydroxybenzyl)pyridine]: the “Proliferating TG1 GSCs EC50” value in the experiment with proliferating TG1 GSCs is given as “No activity”. The “Quiescent TG1 GSCs EC50” value in the experiment on quiescent TG1 GSCs is “No activity”.

As for `Oc1ccc(C(c2ccccn2)c2ccccc2O)cc1` (centres unmarked) [Compound 9, (2-hydroxyphenyl)-(4-hydroxyphenyl)-(pyridin-2-yl)-methane], the “Proliferating TG1 GSCs EC50” value in the experiment with proliferating TG1 GSCs is “No activity”. For the same molecule, the EC50 in the experiment on quiescent TG1 GSCs came out at 57.6 ± 0.7 µM.

With `Oc1ccc(C(c2ccc(Cl)cc2)c2ccccn2)cc1` (centres unmarked) [Compound 10, 4-hydroxyphenyl-4-chlorophenyl-pyridin-2-yl-methane], the EC50 was > 100 µM with proliferating TG1 GSCs and 4 ± 1.4 µM in the experiment on quiescent TG1 GSCs.

As for `Oc1ccc(C(c2ccccc2)c2ccc(O)cc2)cc1` [Compound 12, 4,4’-dihydroxyphenyl-phenyl-methane], the EC50 with proliferating TG1 GSCs was 60.8 ± 10.4 µM. Besides, in the experiment with quiescent TG1 GSCs, the EC50 is 14.2 ± 8.8 µM and the “fold increase in EC50 (activity decrease) compared to DDPM (compound 2)” value was “at least 10 fold”.

With `Oc1ccc(Cc2ccc(O)cc2)cc1` [Compound 13, Bis(4-hydroxyphenyl)methane], the “Proliferating TG1 GSCs EC50” value in the experiment with proliferating TG1 GSCs was “No activity”. For the same molecule, the “Quiescent TG1 GSCs EC50” value in the experiment on quiescent TG1 GSCs is on record as “No activity”.

Regarding `CC(=O)Oc1ccc(C(c2ccc(OC(C)=O)cc2)c2cccc[n+]2C)cc1` [Compound 14, 2-(bis(4-acetoxyphenyl)methyl)-1-methylpyridinium iodide], the EC50 with proliferating TG1 GSCs and in the experiment with quiescent TG1 GSCs was > 100 µM in each case.

Regarding `Oc1ccc(C(c2ccc(O)cc2)c2cccnc2)cc1` [Compound 15, 4,4'-dihydroxyphenyl-3-pyridinyl-methane], the EC50 in the experiment on proliferating TG1 GSCs is > 100 µM; in the experiment with quiescent TG1 GSCs it was 8 ± 3 µM. Besides, the “fold increase in EC50 (activity decrease) compared to DDPM (compound 2)” value in the experiment on quiescent TG1 GSCs is reported as ~ 8 fold.

In the case of `Oc1ccc(C(c2ccncc2)c2ccc(O)cc2)cc1` [Compound 16, 4,4'-dihydroxyphenyl-4-pyridinyl-methane], in the experiment on proliferating TG1 GSCs, the EC50 is > 100 µM. In the experiment with quiescent TG1 GSCs, the EC50 is 39 ± 2 µM and the “fold increase in EC50 (activity decrease) compared to DDPM (compound 2)” value is ~ 40 fold.

For `Oc1ccc(C(c2ccc(O)cc2)c2cc(Br)ccn2)cc1` [Compound 18, 4,4'-dihydroxyphenyl-2-(4-bromopyridinyl)-methane], in the experiment with proliferating TG1 GSCs, the “Proliferating TG1 GSCs EC50” value is on record as “No activity”. For the same molecule, the EC50 in the experiment with quiescent TG1 GSCs amounted to 0.36 ± 0.06 µM.

Turning to `CC(C)(C)OC(=O)NCCCCCCNC(=O)CCCC#Cc1cccc(C(c2ccc(O)cc2)c2ccc(O)cc2)n1` [Compound 19, tert-butyl(6-(6-(6-(bis(4-hydroxyphenyl)methyl)pyridin-2-yl)hex-5-ynamido)hexyl)carbamate], in the experiment on proliferating TG1 GSCs, the “Proliferating TG1 GSCs EC50” value is reported as “No activity”. In the experiment on quiescent TG1 GSCs, the concentration giving a half-maximal response (EC50) turned out to be 3.84 µM.

These data come from PMC4536076, “Chemical Library Screening and Structure-Function Relationship Studies Identify Bisacodyl as a Potent and Selective Cytotoxic Agent Towards Quiescent Human Glioblastoma Tumor Stem-Like Cells” (PLoS ONE, 2015).
